Where no end group is shown, it is not given here.
Legend:
[1] = tested on: MVF-PD-L1 peptide immunogen; assay: Immunogenicity in Balb/c mice, experiment 2 (CT26/HER-2): ELISA of sera vs each MVF-PD-L1 peptide immunogen; assay type: in vivo; conditions: Balb/c mice
Description: Immunogenicity of MVF-PD-L1 B-cell epitopes. New Zealand White rabbits were immunized with 1 mg of each MVF-peptide immunogens dissolved in dd H2O emulsified (1:1) in Montanide ISA 720 vehicle (Seppic) with 333 μg of N-acetylglucosamine-3yl-acetyl-1-alanyl-d-isoglutamine (nor-MDP). Rabbits were boosted with the same doses at 3-week's intervals. Blood was collected via the central auricular artery in rabbits. Blood was collected weekly (1Y+3, 2Y+1, 2Y+2,2Y+3, 3Y+1, 3Y+2 and sera tested for antibody titers by ELISA using the immunogens MVF-PD-L1 peptides. Sera (terminal) from rabbit (3Y+3) immunized with MVF-PD-1 peptide immunogens were tested individually versus the immunogen by ELISA. 200 ng/well peptide were used in duplicates to coat the ELISA plates. Titers are defined as the highest dilution of sera with an absorbance value of 0.2 after subtracting the blank. […]
In order to verify the efficacy of the PD-L1 epitope vaccines in vivo in the CT26/HER-2 carcinoma cell line, Balb/c mice (10 mice/group) were immunized with 100 μg each of MVF-PD-L1 (36-53), MVF-PD-L1 (50-67), MVF-PD-L1 (95-112) and MVF-PD-L1 (130-147) emulsified with nor-MDP and Montanide 720 (1:1 ratio) SCHEME 2A (FIG. 15A). As detailed in SCHEME 2A-D (FIGS. 15A, 15B, 15C, and 15D), mice were immunized 3 times at 3 weeks intervals. […] All PD-L1 epitopes elicited high titers of PD-L1 anti-peptide antibodies by ELISA. […] We also investigated the combination of PD-1(92-110) with PD-L1-95.
For each peptide, vaccine antibodies were raised in New Zealand white rabbits, purchased from Charles River Laboratories (Wilmington, MA, USA). Rabbits were immunized with 1 mg of MVF chimeric peptide emulsified in Montanide ISA 720 (Seppic, Paris, France) and boosted 3 times at three week intervals. For mouse experiments, mice, 6-8 weeks old, were immunized with 0.1 mg of peptide emulsified in ISA720 (1:1 ratio). Mice were boosted with the respective doses at 3-week intervals. Blood was then collected and sera were tested for antibody titers. Sera were collected weekly and peptide vaccine antibodies were purified by affinity chromatography using a protein A/G column and the concentration was measured using Spectrophometer. All experiments were performed in accordance with the U.S. Public Health Service Policy on Humane Care and Use of Laboratory animals and approved by the Ohio State University Institutional Animals Care and Use Committee, detailed in the accepted protocol.
6-8 weeks old BALB/c mice (Charles River, Wilmington, MA) were used as standard animal models. Mouse CT26 colon carcinoma cell line was purchased from American Type Culture Collection Cells and were regularly cultured in RPMI1640 medium containing 10% FBS. CT26/HER2 cells were kindly provided by M. Penichet. Vaccines were dissolved in sterile water and emulsified in Montanide ISA 720 (1:1). Female Balb/c mice (Charles River Laboratories) at the age of 6-8 weeks were immunized three times at 3-week intervals with 100 μg of each peptide vaccine, and 2 weeks after the third immunization, the mice were challenged with CT26 and/or CT26/HER-2 tumor cells, which were implanted subcutaneously (s.c) on the right flank (1×10^5 per mouse). 200 μg of rat α-mouse PD-L1 mAb 10F.9G2 (Bio X Cell, West Lebanon, NH) were administered intraperitoneally (i.p.), twice weekly following tumor inoculation in the control group. Mice were monitored and scored for the formation of palpable tumors on a daily basis and sacrificed if tumors became necrotic or exceeded the predetermined size of 2,000 mm^3. Tumor volumes were measured in cubic millimeters with calipers and calculated with the following formula: A×B^2×0.5, where A is the largest diameter, and B is the widest point perpendicular to length. During immunization, blood was drawn weekly and used in ELISA to monitor antibody titers.

[2] = biological target: T1, PD-1/PD-L1 interaction (Homo sapiens, UniProt Q9NZQ7); assay: PD-1/PD-L1 blockade bioassay (Promega); assay type: cell-based; conditions: antibodies from immunized rabbits, compared to Nivolumab and Atezolizumab
T1 construct: host or cells: PD-L1 aAPC/CHO-K1 cells and PD-1 effector cells
T1 sequence (Q9NZQ7 19-290): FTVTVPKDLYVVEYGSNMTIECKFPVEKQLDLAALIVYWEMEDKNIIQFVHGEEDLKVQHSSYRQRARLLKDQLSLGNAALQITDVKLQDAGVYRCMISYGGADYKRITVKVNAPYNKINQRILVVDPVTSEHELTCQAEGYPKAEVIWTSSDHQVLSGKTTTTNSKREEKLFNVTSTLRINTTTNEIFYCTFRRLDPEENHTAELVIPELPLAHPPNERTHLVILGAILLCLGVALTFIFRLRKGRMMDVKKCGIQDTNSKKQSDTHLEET

For “KLLSLIKGVIVHRLEGVEGPSLYRCMISYGGADYKRITVK (KLLSLIKGVIVHRLEGVEGPSLYRCMISYGGADYKRITVK-NH2) [PD-L1(95)]”, the “Immunogenicity (titers) 1′ Conc. 1:” value ([1]; bleed 1Y + 3) was 100, the “Immunogenicity (titers) 1′ Conc. 1:” value ([1]; bleed 2Y + 1) was 12800 and the “Immunogenicity (titers) 1′ Conc. 1:” value ([1]; bleed 2Y + 2) was 64000. For the same sequence, the “Immunogenicity (titers) 1′ Conc. 1:” value ([1]; bleed 2Y + 3) was 64000, the “Immunogenicity (titers) 1′ Conc. 1:” value ([1]; bleed 3Y + 1) was 128000 and the “Immunogenicity (titers) 1′ Conc. 1:” value ([1]; bleed 3Y + 2) was 128000. The “Immunogenicity (titers) 1′ Conc. 1:” value ([1]; bleed 3Y + 3) was 128000 and the “blocking of PD-1/PD-L1 interaction” value [2] was “unable to block PD-1 and PD-L1”.
